Experimental data from paper PMC6479946 (Molecules, 2019).
Marks after values point to notes of the source that are not given here.

Experiment: Pharmacokinetic study in rats after oral HAR and MEM alone and in combination (plasma, UPLC-MS/MS, non-compartmental)
Settings: rat plasma, n = 8, mean ± SD
Procedure: The analytes were separated on an ACQUITY UPLC BEH C18 column (2.1 mm × 50 mm, 1.7 μm, Waters, Milford, USA). […] The flow rate was 0.3 mL/min. The column and sample-tray temperature were kept at 40 °C and 4 °C, respectively. The injection volume was 5.0 μL using a partial loop with needle over fill mode.
The compound dependent parameters used for analysis were summarized in Supplementary materials Table S1.
A rapid and convenient precipitation method was used to prepare the plasma samples. A 100 μL aliquot of plasma sample was spiked with 100 μL of IS solution and 300 μL of methanol in a 1.5 mL centrifuge tube; subsequently, the mixtures were vortex-mixed for 30.0 s and then centrifuged at 1.5 × 10^4× g for 10 min at 4 °C. A 100 μL aliquot of supernatant was combined with 25.0 μL of 0.1% formic acid water in a clean centrifuge tube and then vortex-mixed for 30 s. A 5.0 μL aliquot of mixture was injected into the UPLC-MS/MS system for analysis.
Fifty-six pathogen-free male adult rats were randomly divided into seven groups with eight rats in each group for pharmacokinetic study. […] One group was intragastrically administered with MEM hydrochloride 5.0 mg/kg dissolved in ultrapure water, namely, MEM group. […] The blood samples were immediately centrifuged at 4.0 × 10^3× g at […] for 10 min, and 100 μL of the supernatant plasma was transferred into another new 1.5 mL centrifuge tube and stored at −20 °C until UPLC-MS/MS analysis.
All standard curves and quantitative data were processed by Agilent Mass Hunter Quantitative Analysis Workstation Software. […] All the pharmacokinetic parameters were processed using the non-compartmental pharmacokinetics data analysis software program PK solutions 2.0^TM (Summit Research Services, USA). […] The AUC(0-t) was obtained by the linear/logarithmic trapezoidal rule, and the area under the plasma concentration versus time curve from zero to infinity (AUC(0-∞)) was calculated by means of the trapezoidal rule with extrapolation to infinity with a terminal elimination rate constant. The Pearson correlation coefficient analysis was processed by IBM SPSS Statistics Version 21. A statistical analysis was performed using analysis of variance with α = 0.05 as the minimal level of significance.

[1] = HOL as metabolite after oral HAR 40.0 mg/kg + MEM 5.0 mg/kg (HAR-M + MEM)
[2] = HOL as metabolite after oral HAR 40.0 mg/kg alone (HAR-M)
[3] = HOL as metabolite after oral HAR 80.0 mg/kg + MEM 5.0 mg/kg (HAR-H + MEM)
[4] = HOL as metabolite after oral HAR 80.0 mg/kg alone (HAR-H)

harmol [HOL]
AUC(0-t) of HOL [1]: 35.5 ± 15.3 ng·h/mL | AUC(0-∞) of HOL [1]: 43.1 ± 21.9 ng·h/mL | Cmax of HOL [1]: 18.0 ± 5.95 ng/mL | Ka of HOL [1]: 1.98 ± 1.72 h⁻¹ | Ke of HOL [1]: 0.312 ± 0.271 h⁻¹ | MRT of HOL [1]: 5.52 ± 2.55 h | T1/2a of HOL [1]: 2.78 ± 4.59 h | T1/2e of HOL [1]: 3.53 ± 2.19 h | T1/2d of HOL [1]: 2.05 ± 1.61 h | Tmax of HOL [1]: 0.229 ± 0.0589 h | AUC(0-t) of HOL [2]: 27.1 ± 10.8 ng·h/mL | AUC(0-∞) of HOL [2]: 29.6 ± 11.3 ng·h/mL | Cmax of HOL [2]: 10.4 ± 2.13 ng/mL | Ka of HOL [2]: 0.808 ± 1.28 h⁻¹ | Ke of HOL [2]: 0.400 ± 0.133 h⁻¹ | MRT of HOL [2]: 4.44 ± 1.78 h | T1/2a of HOL [2]: 2.22 ± 1.67 h | T1/2e of HOL [2]: 1.94 ± 0.712 h | T1/2d of HOL [2]: 1.89 ± 1.07 h | Tmax of HOL [2]: 0.198 ± 0.324 h | AUC(0-t) of HOL [3]: 158 ± 59.9 ^bbb ng*h/mL | AUC(0-∞) of HOL [3]: 327 ± 140 ^bbb ng*h/mL | Cmax of HOL [3]: 40.4 ± 10.9 ^bbb ng/mL | Ka of HOL [3]: 0.864 ± 1.00 h⁻¹ | Ke of HOL [3]: 0.0899 ± 0.0912 ^b /h | MRT of HOL [3]: 23.5 ± 19.3 ^b h | T1/2a of HOL [3]: 2.15 ± 2.05 h | T1/2e of HOL [3]: 17.2 ± 14.7 ^b h | T1/2d of HOL [3]: 3.48 ± 4.35 h | Tmax of HOL [3]: 2.39 ± 3.52 h | AUC(0-t) of HOL [4]: 57.8 ± 19.3 ^aaa ng*h/mL | AUC(0-∞) of HOL [4]: 69.7 ± 23.1 ^aaa ng*h/mL | Cmax of HOL [4]: 32.4 ± 16.5 ^aa ng/mL | Ka of HOL [4]: 1.17 ± 1.96 h⁻¹ | Ke of HOL [4]: 0.226 ± 0.0896 ^aa /h | MRT of HOL [4]: 6.04 ± 2.12 h | T1/2a of HOL [4]: 2.02 ± 1.52 h | T1/2e of HOL [4]: 3.57 ± 1.50 ^a h | T1/2d of HOL [4]: 2.02 ± 1.72 h | Tmax of HOL [4]: 0.271 ± 0.159 h
